Laboratory results taken from patent US20250375445A1, “METHODS OF TREATING A RAS PROTEIN-RELATED DISEASE OR DISORDER” (Revolution Medicines, Inc., priority 2024, published 2025).

Legend:
NRAS WT = NRAS WT (Homo sapiens, UniProt P01111+P62937); assay: RAS-RAF Disruption, NRAS WT; format: biochemical
RAS WT [1] = assay: 3D Cell Viability, 120 hr, RAS WT; format: cell-based
CypA = CypA (Homo sapiens, UniProt P62937); assay: CypA Binding (KD1)
Excerpt: The KD1 value of a RAS(ON) multi-selective inhibitor can be determined using methods standard in the art, including but not limited to surface plasmon resonance (SPR), Fluorescence Polarization (FP), or isothermal titration calorimetry (ITC). In a non-limiting example, the binding affinity of compounds for CypA can be assessed by SPR using, for example, a Biacore 8K instrument. CypA is immobilized on a sensor chip (e.g., a streptavidin chip), and varying RAS(ON) multi-selective inhibitor compound concentrations can be flowed over the chip in assay buffer. […] In a specific embodiment, the KD1 of a RAS(ON) multi-selective inhibitor is determined using SPR.
The binding affinity of RAS(ON) multi-selective inhibitor compounds for CypA can also be assessed by FP competition with fluorescein tagged cyclosporine A by varying RAS(ON) multi-selective inhibitor compound concentrations. The signals can be fitted using a concentration response curve and the KD1 is calculated.
In some embodiments, the KD1 value of a RAS(ON) multi-selective inhibitor for CypA can be determined using ITC, a label-free biophysical technique that directly measures the heat released or absorbed during molecular interactions. […] As the inhibitor binds to CypA, the heat of binding is measured after each injection. […]

RAS WT [2] = assay: Cellular pERK (2D, 4 hr), RAS WT; format: cell-based
KRAS WT [3] = target: T1, KRAS WT (Homo sapiens, UniProt P01116+P62937); assay: KRAS Binding of CypA:TCI (KD2), KRAS WT
T1 sequence (P01116 1-188 isoform P01116-2): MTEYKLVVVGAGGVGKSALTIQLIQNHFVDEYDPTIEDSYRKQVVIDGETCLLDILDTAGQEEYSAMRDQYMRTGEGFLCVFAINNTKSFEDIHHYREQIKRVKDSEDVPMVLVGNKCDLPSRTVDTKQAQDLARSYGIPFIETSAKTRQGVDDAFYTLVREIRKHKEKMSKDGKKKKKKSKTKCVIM
T1 sequence (P62937 whole entry): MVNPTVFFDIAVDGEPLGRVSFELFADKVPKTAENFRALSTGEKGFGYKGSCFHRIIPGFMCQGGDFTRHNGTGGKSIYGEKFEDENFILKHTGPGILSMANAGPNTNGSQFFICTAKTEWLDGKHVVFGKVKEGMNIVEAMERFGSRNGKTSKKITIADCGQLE

[4] = Oral bioavailability (multiple species); conditions: in vivo, read-out: Oral % F (multiple species)
[5] = test system: KRAS MUT (G12C, G12D, G12V); assay: Cellular pERK (2D, 4 hr), KRAS MUT; format: cell-based
[6] = test system: KRAS MUT (G12C, G12D, G12V); assay: 2D Cell Viability, 120 hr, KRAS MUT; format: cell-based
[7] = test system: NCI-H441 KRAS^G12V NSCLC xenograft model; assay: NCI-H441 xenograft efficacy and tolerability; format: in vivo
Description: (§1) All mouse studies and procedures related to animal handling, care and treatment complied with all applicable regulations and guidelines of Institutional Animal Care and Use Committee (IACUC) approvals. Female BALB/c nude mice, 6-8 weeks old were used. Animal vendor was Shanghai Sino-British Sippr/BK Laboratory Animal Co., LTD. NCI-H441 tumor cells (ATCC-HTB-174) was maintained in vitro in RPMI-1640 medium supplemented with 10% heat inactivated FBS, 100 μg/mL streptomycin. Each mouse was inoculated subcutaneously at the right flank with 2×10^6 tumor cells in 0.2 ml media/matrigel for tumor development. Efficacy treatment started when the average tumor size reached 150-200 mm^3 in size, and the single dosed PKPD treatment started when tumor size reached 300-600 mm^3. Mice in the study were weighted and tumors were measured twice weekly.
NCI-H441 is a human lung tumor derived cell line. It harbors a KRAS^G12V mutation. It is typically grown in immune-deficient mice as a xenograft model. An NCI-H441 xenograft study was conducted in female BALB/C Nude mice. Each mouse was inoculated subcutaneously on the right flank with the single cell suspension of tumor cells (2×10^6) in 200 uL with BD Matrigel (1:1 ratio) for tumor development. Tumor width and length were measured with digital calipers, and the tumor volume in mm3 was calculated using the formula: Volume=((width)2×length)/2, where width and length are measured in mm.
Tumor growth inhibition (TGI, %) was calculated as percentage change in tumor volume for each group 100×(Vdayxc−Vdayx)/(Vdayxc−Vdayoc), where Vday0c is the starting mean tumor volume for the vehicle group, and Vdayx and Vdayxc are the corresponding tumor volumes for treatment group and control group on day x, calculated for the duration of the study. Mean tumor regression (where applicable, Vdayx<Vday0x) was calculated using the formula 100×(Vday0x−Vdayx)/Vday0x.
Differences in treatment arms as compared to vehicle controls were assessed by an ordinary one-way ANOVA of tumor volumes along with multiple comparisons via a post-hoc Tukey's test in GraphPad Prism software. Note, in some studies, additional test articles/groups (not reported here) were included and statistical analyses (ANOVA, post-hoc within group comparisons) were conducted on all treatment groups to allow for any interactions. The statistical significance values reported here represent the output of such analyses for RMC-6236 treatment arm.

[8] = test system: human DUSP6 in NCI-H441 xenograft tumor; assay: NCI-H441 xenograft single dose PKPD (exposure, human DUSP6); format: in vivo, mouse; conditions: single oral dose, NCI-H441 xenograft tumor (FIG. 2)
Description: as §1

KRAS WT [9] = target: T1, KRAS WT; assay: RAS-RAF Disruption, KRAS WT; format: biochemical
[10] = test system: NRAS MUT (Q61H, Q61K, Q61L, Q61R); assay: RAS-RAF Disruption, NRAS MUT; format: biochemical
[11] = test system: KRAS MUT (G12C, G12D, G12V); assay: RAS-RAF Disruption, KRAS MUT; format: biochemical
BRAF (V600E) = assay: 2D Cell Viability, 120 hr, BRAF (V600E); format: cell-based
RAS mutant NSCLC or PDAC = assay: Phase I study of RMC-6236 (NCT05379985); format: in vivo, human
[12] = Half-life after oral administration to patients; conditions: human, in vivo
KRAS MUT (G12D, G12V) = assay: KRAS Binding of CypA:TCI (KD2), KRAS MUT
[13] = test system: Capan-2, KRAS^G12V PDAC CDX model; assay: Capan-2 xenograft efficacy and tolerability; format: in vivo, mouse
Description: Capan-2 is a human pancreatic adenocarcinoma derived cell line. It harbors a KRAS^G12V mutation. It is typically grown in immune-deficient mice as a xenograft model. A Capan-2 xenograft study was conducted in female BALB/C Nude mice. Each mouse was inoculated subcutaneously on the right flank with the single cell suspension of tumor cells (4×10^6) in 100 uL RPMI 1640/Matrigel mixture (1:1 ratio) for tumor development. Tumor width and length were measured with digital calipers, and the tumor volume in mm3 was calculated using the formula: Volume=((width)2×length)/2, where width and length are measured in mm. Tumor growth inhibition (TGI, %) was calculated as percentage change in tumor volume for each group 100×(Vdayxc−Vdayx)/(Vdayxc−Vday0c), where Vday0c is the starting mean tumor volume for the vehicle group, and Vdayx and Vdayxc are the corresponding tumor volumes for treatment group and control group on day x, calculated for the duration of the study. Mean tumor regression (where applicable, Vdayx<Vday0x) was calculated using the formula 100×(Vday0x−Vdayx)/Vday0x.

[14] = Tolerability by dosing schedule in preclinical models
[15] = 25 mg/kg daily, 50 mg/kg daily, 50 mg/kg Q2D and 100 mg/kg Q2D (FIG. 3)
[16] = patients with RAS mutant NSCLC or PDAC

Sequence of CypA (P62937 whole entry): as above
Sequence of NRAS WT (P01111 whole entry): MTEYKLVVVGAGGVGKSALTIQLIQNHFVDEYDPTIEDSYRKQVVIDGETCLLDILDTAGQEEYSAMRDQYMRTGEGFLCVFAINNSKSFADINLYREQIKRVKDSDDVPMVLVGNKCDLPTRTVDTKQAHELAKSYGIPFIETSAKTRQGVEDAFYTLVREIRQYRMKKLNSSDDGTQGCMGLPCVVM
Sequence of NRAS WT (P62937 whole entry): as the sequence (P62937 whole entry) above

Row | SMILES | IC50 (NRAS WT) [nM] | IC50 (RAS WT [1]) [nM] | Kd (CypA) [nM] | IC50 (RAS WT [2]) [nM] | Kd (KRAS WT [3]) [nM] | bioavailability [4] [%] | IC50 [5] [nM] | IC50 [6] [nM] | time of maximum DUSP6 suppression post single dose [8] [h] | IC50 (KRAS WT [9]) [nM] | IC50 [10] [nM] | IC50 [11] [nM] | IC50 (BRAF (V600E)) [nM] | Kd (KRAS MUT (G12D, G12V)) [nM] | other results
1 | CCn1c(-c2cc(N3CCN(C)CC3)cnc2[C@H](C)OC)c2c3cc(ccc31)-c1csc(n1)C[C@H](NC(=O)[C@H](C(C)C)N(C)C(=O)N(C)C)C(=O)N1CCC[C@H](N1)C(=O)OCC(C)(C)C2 (atropisomer, axis not shown) [Compound A] | 33 | 0.4 | 12 | 0.4 | 81 | 20 to 38 | 0.3 to 1 | 0.2 to 1.2 | 24 | 42 | 18 to 109 | 23 to 165 | 1880 |  | tolerability (dosing holidays) [7, 15]: all treatment groups require some dosing holidays towards the end; tumor regression [7, 15]: the same tumor regression
2 | CCn1c(-c2cc(N3CCN(C)CC3)cnc2[C@H](C)OC)c2c3cc(ccc31)-c1csc(n1)C[C@H](NC(=O)[C@H]1C[C@@H]1C)C(=O)N1CCC[C@H](N1)C(=O)OCC(C)(C)C2 (atropisomer, axis not shown) [RMC-6236, daraxonrasib] |  | 1.4 |  | 1.5 |  | 24 to 33 | 0.4 to 3.6 | 1 to 3.1 | 8 |  | 57 to 204 | 35 to 229 | 7210 | 131 to 364 | most common treatment-related adverse events (TRAEs) (RAS mutant NSCLC or PDAC): rash and GI-related toxicities; antitumor activity (RAS mutant NSCLC or PDAC; [16]): encouraging antitumor activity; safety profile (RAS mutant NSCLC or PDAC; [16]): acceptable safety profile; half-life [12]: ~10 h; tumor regression ([13]; 25 mg/kg QD, Capan-2 (FIG. 7)): 53%; tumor regression ([13]; 35 mg/kg 5on2off, Capan-2 (FIG. 7)): 28%; tumor regression ([13]; 40 mg/kg 4on3off, Capan-2 (FIG. 7)): 27%; tumor regression ([13]; 50 mg/kg Q2D, Capan-2 (FIG. 7)): 51%; tolerability, body weight ([13]; all tested doses and regimens, Capan-2 (FIG. 7)): without any significant body weight loss; tumor growth inhibition ([13]; all tested doses and regimens, oral administration (FIG. 7)): Tumor growth inhibition was observed; decrease in tumor volume ([7]; 25 mg/kg (Q2D) (FIG. 1)): lower decreases in tumor volume; tumor regression ([7]; 25 mg/kg QD, NCI-H441 model (FIG. 6)): 88%; tumor regression ([7]; 100 mg/kg Q2D, NCI-H441 model (FIG. 6)): 89%; tumor regression ([7]; 100 mpk with increased interval of dosing, NCI-H441 model (FIG. 6)): 68%; tolerability, body weight ([7]; all doses and regimens of FIG. 6): without any significant body weight loss; tolerability ([7]; all regimens of FIG. 4 and FIG. 5): tolerated in vivo; body weight loss and tolerability ([14]; BID dosing): more severe body weight loss and intolerability; tolerated dose level ([14]; Q2D dosing): allows higher dose levels to be tolerated; body weight loss ([14]; Q2D dosing at an equivalent dose of QD dosing): slightly improves the body weight loss
3 | CCn1c(-c2cc(N3CCN(C4CC4)CC3)cnc2[C@H](C)OC)c2c3cc(ccc31)-c1csc(n1)C[C@H](CC(=O)[C@H]1[C@@H]3COC[C@@H]31)C(=O)N1CCC[C@H](N1)C(=O)OCC(C)(C)C2 (atropisomer, axis not shown) [RMC-7977] | 57 | 1.9 | 216 | 1.7 | 116 | 60 | 0.5 to 4.1 | 0.8 to 4.9 | 8 | 76 | 48 to 144 | 31 to 175 | 8360 | 111 to 435 | 
